{"source": "ChEMBL document CHEMBL1212733", "about": "“Chemical genomics in Escherichia coli identifies an inhibitor of bacterial lipoprotein targeting” (Nat Chem Biol, 2009)", "key": {"[1]": {"molecular_target": "Multidrug efflux pump subunit AcrB (Escherichia coli (strain K12)) (UniProt P31224)", "sequence (P31224 whole entry)": "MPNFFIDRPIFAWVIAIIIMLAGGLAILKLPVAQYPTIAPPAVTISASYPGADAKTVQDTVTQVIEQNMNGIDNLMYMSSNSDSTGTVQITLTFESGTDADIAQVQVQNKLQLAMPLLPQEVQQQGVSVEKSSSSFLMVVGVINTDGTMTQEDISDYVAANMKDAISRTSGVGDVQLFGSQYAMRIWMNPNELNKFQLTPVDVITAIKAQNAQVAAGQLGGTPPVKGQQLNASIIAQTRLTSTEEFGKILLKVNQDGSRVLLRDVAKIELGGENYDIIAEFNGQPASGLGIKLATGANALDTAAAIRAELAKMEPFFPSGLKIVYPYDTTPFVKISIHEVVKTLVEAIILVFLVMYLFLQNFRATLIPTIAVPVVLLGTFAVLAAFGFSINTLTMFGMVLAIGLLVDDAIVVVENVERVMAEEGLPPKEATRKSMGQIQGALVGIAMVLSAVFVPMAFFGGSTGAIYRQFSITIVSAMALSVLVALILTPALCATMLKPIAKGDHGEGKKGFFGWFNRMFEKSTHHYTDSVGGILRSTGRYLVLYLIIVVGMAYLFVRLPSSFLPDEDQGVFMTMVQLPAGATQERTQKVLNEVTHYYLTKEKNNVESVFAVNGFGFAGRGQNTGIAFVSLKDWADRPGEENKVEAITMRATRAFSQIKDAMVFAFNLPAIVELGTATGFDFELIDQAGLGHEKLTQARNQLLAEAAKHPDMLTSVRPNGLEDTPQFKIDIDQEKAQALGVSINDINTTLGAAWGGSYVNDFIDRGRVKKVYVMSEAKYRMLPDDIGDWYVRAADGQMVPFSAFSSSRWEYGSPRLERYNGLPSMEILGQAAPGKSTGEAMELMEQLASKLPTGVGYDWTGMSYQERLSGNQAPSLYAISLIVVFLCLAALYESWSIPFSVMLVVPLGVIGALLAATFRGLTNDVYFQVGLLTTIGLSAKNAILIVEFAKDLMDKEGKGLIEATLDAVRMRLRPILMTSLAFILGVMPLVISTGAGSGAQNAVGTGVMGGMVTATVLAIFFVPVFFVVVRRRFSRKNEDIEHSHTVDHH", "test": "Binding affinity to Escherichia coli K-12 MC1061 acrB assessed as susceptibility to compound efflux at 0.01 to 1 ug/ml after 16 hrs by plate reader assay"}, "[2]": {"molecular_target": "UDP-N-acetylglucosamine 1-carboxyvinyltransferase (Escherichia coli K-12) (UniProt P0A749)", "sequence (P0A749 whole entry)": "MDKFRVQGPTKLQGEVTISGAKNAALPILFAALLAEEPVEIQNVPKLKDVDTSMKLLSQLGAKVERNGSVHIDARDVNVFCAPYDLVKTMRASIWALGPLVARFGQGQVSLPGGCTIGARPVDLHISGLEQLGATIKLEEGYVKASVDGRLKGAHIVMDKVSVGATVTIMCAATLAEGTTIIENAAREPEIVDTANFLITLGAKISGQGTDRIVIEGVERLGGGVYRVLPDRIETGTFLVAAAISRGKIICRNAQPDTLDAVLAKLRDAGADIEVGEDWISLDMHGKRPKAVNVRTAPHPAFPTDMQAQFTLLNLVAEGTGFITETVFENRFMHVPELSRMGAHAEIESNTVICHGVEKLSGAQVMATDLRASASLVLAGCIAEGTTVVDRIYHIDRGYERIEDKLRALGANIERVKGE", "test": "Inhibition of IPTG-stimulated Escherichia coli K-12 murA at 4 fold MIC by microarray analysis"}, "[3]": {"molecular_target": "Multifunctional CCA protein (Escherichia coli (strain K12)) (UniProt P06961)", "sequence (P06961 whole entry)": "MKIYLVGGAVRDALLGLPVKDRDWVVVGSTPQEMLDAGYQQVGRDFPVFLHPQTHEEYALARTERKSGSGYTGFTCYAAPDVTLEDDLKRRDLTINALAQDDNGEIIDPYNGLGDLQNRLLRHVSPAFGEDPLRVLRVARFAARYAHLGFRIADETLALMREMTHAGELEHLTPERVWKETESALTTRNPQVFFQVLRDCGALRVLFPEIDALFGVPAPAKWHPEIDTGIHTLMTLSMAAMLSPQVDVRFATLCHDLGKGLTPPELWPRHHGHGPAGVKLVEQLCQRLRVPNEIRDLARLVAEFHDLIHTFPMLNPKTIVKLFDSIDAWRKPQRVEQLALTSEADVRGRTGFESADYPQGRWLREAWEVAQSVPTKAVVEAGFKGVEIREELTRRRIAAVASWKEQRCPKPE", "test": "Inhibition of IPTG-stimulated Escherichia coli K-12 cca at 4 fold MIC by microarray analysis"}, "[4]": {"molecular_target": "T1, Uncharacterized protein YdiL (Escherichia coli (strain K12)) (UniProt P76196)", "T1 sequence (whole entry)": "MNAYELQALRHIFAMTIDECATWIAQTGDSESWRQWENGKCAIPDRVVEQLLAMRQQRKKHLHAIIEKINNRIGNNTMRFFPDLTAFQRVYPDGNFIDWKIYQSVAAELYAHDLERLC", "test": "Inhibition of IPTG-stimulated Escherichia coli K-12 ydiL at 4 fold MIC by microarray analysis"}, "[5]": {"molecular_target": "Uncharacterized protein YdfB (Escherichia coli (strain K12)) (UniProt P29009)", "sequence (P29009 whole entry)": "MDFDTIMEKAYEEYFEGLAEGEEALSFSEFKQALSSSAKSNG", "test": "Inhibition of IPTG-stimulated Escherichia coli K-12 ydfB at 4 fold MIC by microarray analysis"}, "[6]": {"molecular_target": "Putative reactive intermediate deaminase TdcF (Escherichia coli (strain K12)) (UniProt P0AGL2)", "sequence (P0AGL2 whole entry)": "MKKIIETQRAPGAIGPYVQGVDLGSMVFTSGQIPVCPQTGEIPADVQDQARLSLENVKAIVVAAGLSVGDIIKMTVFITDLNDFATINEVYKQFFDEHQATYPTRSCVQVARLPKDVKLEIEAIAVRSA", "test": "Inhibition of IPTG-stimulated Escherichia coli K-12 yhaR at 4 fold MIC by microarray analysis"}, "[7]": {"molecular_target": "Fructose-bisphosphate aldolase class 2 (Escherichia coli K-12) (UniProt P0AB71)", "sequence (P0AB71 whole entry)": "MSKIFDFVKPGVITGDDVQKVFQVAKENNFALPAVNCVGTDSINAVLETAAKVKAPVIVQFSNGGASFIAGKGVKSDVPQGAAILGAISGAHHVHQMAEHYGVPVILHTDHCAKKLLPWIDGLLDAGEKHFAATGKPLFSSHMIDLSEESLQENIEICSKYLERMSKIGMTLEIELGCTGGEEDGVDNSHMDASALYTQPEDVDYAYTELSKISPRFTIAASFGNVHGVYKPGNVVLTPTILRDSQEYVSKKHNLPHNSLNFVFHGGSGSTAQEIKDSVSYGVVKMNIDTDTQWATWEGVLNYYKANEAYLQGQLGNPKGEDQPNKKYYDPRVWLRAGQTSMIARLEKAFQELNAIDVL", "test": "Inhibition of IPTG-stimulated Escherichia coli K-12 fbaA at 4 fold MIC by microarray analysis"}, "[8]": {"molecular_target": "Acyl carrier protein (Escherichia coli (strain K12)) (UniProt P0A6A8)", "sequence (P0A6A8 whole entry)": "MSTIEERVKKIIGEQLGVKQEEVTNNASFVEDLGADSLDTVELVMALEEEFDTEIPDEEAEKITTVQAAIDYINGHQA", "test": "Inhibition of IPTG-stimulated Escherichia coli K-12 acpP at 4 fold MIC by microarray analysis"}, "[9]": {"molecular_target": "3-oxoacyl-[acyl-carrier-protein] synthase 1 (Escherichia coli K-12) (UniProt P0A953)", "sequence (P0A953 whole entry)": "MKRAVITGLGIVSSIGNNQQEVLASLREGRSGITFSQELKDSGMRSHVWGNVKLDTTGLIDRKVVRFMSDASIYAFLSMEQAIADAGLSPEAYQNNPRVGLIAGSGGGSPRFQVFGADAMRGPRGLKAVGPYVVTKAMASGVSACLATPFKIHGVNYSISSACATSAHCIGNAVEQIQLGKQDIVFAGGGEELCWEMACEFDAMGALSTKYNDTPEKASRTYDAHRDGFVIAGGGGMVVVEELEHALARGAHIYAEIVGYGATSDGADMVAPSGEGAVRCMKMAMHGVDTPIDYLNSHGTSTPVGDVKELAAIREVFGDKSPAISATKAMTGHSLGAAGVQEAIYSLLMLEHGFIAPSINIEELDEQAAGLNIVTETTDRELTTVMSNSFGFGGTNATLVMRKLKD", "test": "Inhibition of IPTG-stimulated Escherichia coli K-12 fabB at 4 fold MIC by microarray analysis"}, "[10]": {"molecular_target": "Guanylate kinase (Escherichia coli (strain K12)) (UniProt P60546)", "sequence (P60546 whole entry)": "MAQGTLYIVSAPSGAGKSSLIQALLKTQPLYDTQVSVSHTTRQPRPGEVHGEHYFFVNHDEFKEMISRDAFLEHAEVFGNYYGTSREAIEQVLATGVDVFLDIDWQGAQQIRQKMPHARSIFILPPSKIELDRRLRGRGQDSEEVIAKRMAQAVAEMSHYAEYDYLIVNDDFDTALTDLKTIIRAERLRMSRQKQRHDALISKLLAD", "test": "Inhibition of IPTG-stimulated Escherichia coli K-12 gmk at 4 fold MIC by microarray analysis"}, "[11]": {"molecular_target": "Octaprenyl diphosphate synthase (Escherichia coli (strain K12)) (UniProt P0AD57)", "sequence (P0AD57 whole entry)": "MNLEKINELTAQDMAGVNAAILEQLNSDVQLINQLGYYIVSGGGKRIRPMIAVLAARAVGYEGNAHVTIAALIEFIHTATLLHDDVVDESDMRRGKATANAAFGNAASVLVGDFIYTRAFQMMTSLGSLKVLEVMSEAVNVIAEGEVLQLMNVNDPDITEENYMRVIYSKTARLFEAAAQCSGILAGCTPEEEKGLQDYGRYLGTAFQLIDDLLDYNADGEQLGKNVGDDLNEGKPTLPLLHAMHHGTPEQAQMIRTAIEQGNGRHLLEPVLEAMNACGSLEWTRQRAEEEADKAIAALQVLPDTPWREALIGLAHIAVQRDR", "test": "Inhibition of IPTG-stimulated Escherichia coli K-12 ispB at 4 fold MIC by microarray analysis"}, "[12]": {"molecular_target": "Farnesyl diphosphate synthase (Escherichia coli K-12) (UniProt P22939)", "sequence (P22939 whole entry)": "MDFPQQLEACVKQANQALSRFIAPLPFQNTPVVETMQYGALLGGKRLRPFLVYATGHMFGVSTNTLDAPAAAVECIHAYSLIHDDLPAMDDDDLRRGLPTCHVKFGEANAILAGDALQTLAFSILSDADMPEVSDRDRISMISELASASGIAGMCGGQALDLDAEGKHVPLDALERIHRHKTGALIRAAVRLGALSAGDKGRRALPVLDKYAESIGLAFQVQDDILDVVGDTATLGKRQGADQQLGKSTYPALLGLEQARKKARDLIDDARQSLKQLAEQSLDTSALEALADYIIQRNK", "test": "Inhibition of IPTG-stimulated Escherichia coli K-12 ispA at 4 fold MIC by microarray analysis"}, "[13]": {"molecular_target": "1-acyl-sn-glycerol-3-phosphate acyltransferase (Escherichia coli (strain K12)) (UniProt P26647)", "sequence (P26647 whole entry)": "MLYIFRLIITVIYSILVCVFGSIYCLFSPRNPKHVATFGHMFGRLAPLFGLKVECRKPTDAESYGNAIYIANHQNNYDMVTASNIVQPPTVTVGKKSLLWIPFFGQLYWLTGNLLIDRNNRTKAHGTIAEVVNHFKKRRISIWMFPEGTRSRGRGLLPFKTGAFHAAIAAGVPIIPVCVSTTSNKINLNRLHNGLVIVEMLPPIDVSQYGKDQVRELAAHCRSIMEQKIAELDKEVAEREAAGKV", "test": "Inhibition of IPTG-stimulated Escherichia coli K-12 plsC at 4 fold MIC by microarray analysis"}, "[14]": {"molecular_target": "UDP-N-acetylmuramoyl-L-alanyl-D-glutamate--2,6-diaminopimelate ligase (Escherichia coli (strain K12)) (UniProt P22188)", "test": "Inhibition of IPTG-stimulated Escherichia coli K-12 murE at 4 fold MIC by microarray analysis"}, "[15]": {"molecular_target": "CDP-diacylglycerol--glycerol-3-phosphate 3-phosphatidyltransferase (Escherichia coli (strain K12)) (UniProt P0ABF8)", "sequence (P0ABF8 whole entry)": "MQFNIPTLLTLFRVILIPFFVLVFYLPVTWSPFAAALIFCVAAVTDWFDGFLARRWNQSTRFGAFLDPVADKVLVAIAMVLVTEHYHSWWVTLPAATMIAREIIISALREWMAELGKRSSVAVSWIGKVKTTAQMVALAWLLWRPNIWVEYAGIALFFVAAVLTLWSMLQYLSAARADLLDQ", "test": "Inhibition of IPTG-stimulated Escherichia coli K-12 pgsA at 4 fold MIC by microarray analysis"}, "[16]": {"molecular_target": "T2, Dihydrofolate synthase/folylpolyglutamate synthase (Escherichia coli (strain K12)) (UniProt P08192)", "T2 sequence (whole entry)": "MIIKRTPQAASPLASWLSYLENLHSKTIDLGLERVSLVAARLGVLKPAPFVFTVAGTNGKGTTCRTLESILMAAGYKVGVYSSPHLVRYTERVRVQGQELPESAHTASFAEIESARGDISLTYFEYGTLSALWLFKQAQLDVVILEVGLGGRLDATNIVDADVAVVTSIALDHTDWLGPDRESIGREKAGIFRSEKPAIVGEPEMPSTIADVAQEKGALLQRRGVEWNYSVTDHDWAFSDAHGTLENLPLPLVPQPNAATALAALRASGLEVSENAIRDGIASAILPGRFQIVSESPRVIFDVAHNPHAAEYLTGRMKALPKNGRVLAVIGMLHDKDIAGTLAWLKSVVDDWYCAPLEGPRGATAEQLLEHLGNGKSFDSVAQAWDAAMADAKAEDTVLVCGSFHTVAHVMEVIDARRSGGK", "test": "Inhibition of IPTG-stimulated Escherichia coli K-12 folC at 4 fold MIC by microarray analysis"}, "[17]": {"molecular_target": "T3, Outer membrane protein TolC (Escherichia coli (strain K12)) (UniProt P02930)", "T3 sequence (whole entry)": "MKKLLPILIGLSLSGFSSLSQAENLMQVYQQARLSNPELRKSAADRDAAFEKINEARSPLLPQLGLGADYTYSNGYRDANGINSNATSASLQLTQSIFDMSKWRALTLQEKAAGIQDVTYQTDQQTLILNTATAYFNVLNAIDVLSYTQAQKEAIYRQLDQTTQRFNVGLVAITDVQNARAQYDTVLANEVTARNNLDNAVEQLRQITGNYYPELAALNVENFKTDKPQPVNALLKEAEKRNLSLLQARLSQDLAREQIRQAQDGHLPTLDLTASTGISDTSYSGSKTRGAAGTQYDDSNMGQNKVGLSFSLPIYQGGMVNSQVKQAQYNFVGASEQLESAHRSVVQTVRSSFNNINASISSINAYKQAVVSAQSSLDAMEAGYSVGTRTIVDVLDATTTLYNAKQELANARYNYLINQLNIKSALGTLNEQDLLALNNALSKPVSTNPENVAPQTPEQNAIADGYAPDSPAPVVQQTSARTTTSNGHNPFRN", "test": "Inhibition of IPTG-stimulated Escherichia coli K-12 tolC at 16 fold MIC by microarray analysis"}, "[18]": {"molecular_target": "T2, Dihydrofolate synthase/folylpolyglutamate synthase (Escherichia coli (strain K12))", "test": "Inhibition of IPTG-stimulated Escherichia coli K-12 folC at 16 fold MIC by microarray analysis"}, "[19]": {"molecular_target": "Acyl carrier protein (Escherichia coli (strain K12)) (UniProt P0A6A8)", "test": "Inhibition of IPTG-stimulated Escherichia coli K-12 acpP at 8 fold MIC by microarray analysis"}, "[20]": {"molecular_target": "3-oxoacyl-[acyl-carrier-protein] synthase 1 (Escherichia coli K-12) (UniProt P0A953)", "test": "Inhibition of IPTG-stimulated Escherichia coli K-12 fabB at 8 fold MIC by microarray analysis"}, "[21]": {"molecular_target": "Octaprenyl diphosphate synthase (Escherichia coli (strain K12)) (UniProt P0AD57)", "test": "Inhibition of IPTG-stimulated Escherichia coli K-12 ispB at 8 fold MIC by microarray analysis"}, "[22]": {"molecular_target": "Large ribosomal subunit protein bL28 (Escherichia coli (strain K12)) (UniProt P0A7M2)", "test": "Inhibition of IPTG-stimulated Escherichia coli K-12 rpmB at 4 fold MIC by microarray analysis"}, "[23]": {"molecular_target": "tRNA threonylcarbamoyladenosine biosynthesis protein TsaE (Escherichia coli (strain K12)) (UniProt P0AF67)", "test": "Inhibition of IPTG-stimulated Escherichia coli K-12 yjeE at 4 fold MIC by microarray analysis"}, "[24]": {"molecular_target": "Small ribosomal subunit protein bS18 (Escherichia coli (strain K12)) (UniProt P0A7T7)", "test": "Inhibition of IPTG-stimulated Escherichia coli K-12 rpSR at 4 fold MIC by microarray analysis"}, "[25]": {"molecular_target": "D-alanine--D-alanine ligase B (Escherichia coli K-12) (UniProt P07862)", "test": "Inhibition of IPTG-stimulated Escherichia coli K-12 ddlB at 4 fold MIC by microarray analysis"}, "[26]": {"molecular_target": "T4, Iron-sulfur cluster insertion protein ErpA (Escherichia coli (strain K12)) (UniProt P0ACC3)", "T4 sequence (whole entry)": "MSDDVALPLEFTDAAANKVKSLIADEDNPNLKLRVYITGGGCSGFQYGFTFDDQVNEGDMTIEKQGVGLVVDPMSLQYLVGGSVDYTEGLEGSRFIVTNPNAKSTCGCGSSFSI", "test": "Inhibition of IPTG-stimulated Escherichia coli K-12 yadR at 4 fold MIC by microarray analysis"}, "[27]": {"molecular_target": "T5, Cell division protein FtsA (Escherichia coli (strain K12)) (UniProt P0ABH0)", "T5 sequence (whole entry)": "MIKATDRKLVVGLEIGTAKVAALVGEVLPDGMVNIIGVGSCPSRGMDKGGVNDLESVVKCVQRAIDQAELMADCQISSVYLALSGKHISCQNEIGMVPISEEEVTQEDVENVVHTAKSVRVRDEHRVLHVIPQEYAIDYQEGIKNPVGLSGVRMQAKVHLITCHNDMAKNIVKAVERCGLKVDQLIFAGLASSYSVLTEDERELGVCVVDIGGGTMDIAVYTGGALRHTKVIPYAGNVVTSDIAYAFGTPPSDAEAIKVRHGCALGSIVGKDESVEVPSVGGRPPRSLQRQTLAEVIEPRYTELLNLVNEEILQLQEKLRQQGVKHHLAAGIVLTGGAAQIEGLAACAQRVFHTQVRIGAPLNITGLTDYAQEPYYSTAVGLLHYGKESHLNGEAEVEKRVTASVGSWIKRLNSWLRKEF", "test": "Inhibition of IPTG-stimulated Escherichia coli K-12 ftsA at 4 fold MIC by microarray analysis"}, "[28]": {"molecular_target": "UDP-3-O-acyl-N-acetylglucosamine deacetylase (Escherichia coli K-12) (UniProt P0A725)", "sequence (P0A725 whole entry)": "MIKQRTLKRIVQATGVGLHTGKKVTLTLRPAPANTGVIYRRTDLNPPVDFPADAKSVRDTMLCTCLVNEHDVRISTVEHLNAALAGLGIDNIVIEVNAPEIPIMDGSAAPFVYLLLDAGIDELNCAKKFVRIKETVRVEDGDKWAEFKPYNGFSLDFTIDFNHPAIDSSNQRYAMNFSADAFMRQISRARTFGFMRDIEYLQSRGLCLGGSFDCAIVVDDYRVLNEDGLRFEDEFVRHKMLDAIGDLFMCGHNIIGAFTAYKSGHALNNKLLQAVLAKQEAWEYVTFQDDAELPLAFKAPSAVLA", "test": "Inhibition of IPTG-stimulated Escherichia coli K-12 envA at 4 fold MIC by microarray analysis"}, "[29]": {"molecular_target": "T5, Cell division protein FtsA (Escherichia coli (strain K12))", "test": "Inhibition of IPTG-stimulated Escherichia coli K-12 ftsA at 16 fold MIC by microarray analysis"}, "[30]": {"molecular_target": "T4, Iron-sulfur cluster insertion protein ErpA (Escherichia coli (strain K12))", "test": "Inhibition of IPTG-stimulated Escherichia coli K-12 yadR at 16 fold MIC by microarray analysis"}, "[31]": {"molecular_target": "D-alanine--D-alanine ligase B (Escherichia coli K-12) (UniProt P07862)", "test": "Inhibition of IPTG-stimulated Escherichia coli K-12 ddlB at 16 fold MIC by microarray analysis"}, "[32]": {"molecular_target": "T5, Cell division protein FtsA (Escherichia coli (strain K12))", "test": "Inhibition of IPTG-stimulated Escherichia coli K-12 ftsA at 8 fold MIC by microarray analysis"}, "[33]": {"molecular_target": "T4, Iron-sulfur cluster insertion protein ErpA (Escherichia coli (strain K12))", "test": "Inhibition of IPTG-stimulated Escherichia coli K-12 yadR at 8 fold MIC by microarray analysis"}, "[34]": {"molecular_target": "D-alanine--D-alanine ligase B (Escherichia coli K-12) (UniProt P07862)", "test": "Inhibition of IPTG-stimulated Escherichia coli K-12 ddlB at 8 fold MIC by microarray analysis"}, "[35]": {"molecular_target": "T3, Outer membrane protein TolC (Escherichia coli (strain K12))", "test": "Inhibition of IPTG-stimulated Escherichia coli K-12 tolC at 4 fold MIC by microarray analysis"}}, "note": "The source made the active and inactive calls. No cut-off for these calls is given here.", "data": [{"smiles": "CCn1cc(C(=O)O)c(=O)c2cc(F)c(N3CCNCC3)cc21", "values": [{"measurement": "Activity", "setting": "[1]", "result": "inactive"}]}, {"smiles": "C[C@@H]1O[C@@H]1P(=O)(O)O", "values": [{"measurement": "inhibition", "setting": "[2]", "result": "Active"}, {"measurement": "inhibition", "setting": "[3]", "result": "Active"}, {"measurement": "inhibition", "setting": "[4]", "result": "Active"}, {"measurement": "inhibition", "setting": "[5]", "result": "Active"}, {"measurement": "inhibition", "setting": "[6]", "result": "Active"}, {"measurement": "inhibition", "setting": "[7]", "result": "Active"}, {"measurement": "inhibition", "setting": "[8]", "result": "Active"}, {"measurement": "inhibition", "setting": "[9]", "result": "Active"}, {"measurement": "inhibition", "setting": "[10]", "result": "Active"}, {"measurement": "inhibition", "setting": "[11]", "result": "Active"}, {"measurement": "inhibition", "setting": "[12]", "result": "Active"}, {"measurement": "inhibition", "setting": "[13]", "result": "Active"}, {"measurement": "inhibition", "setting": "[14]", "result": "Active"}, {"measurement": "inhibition", "setting": "[15]", "result": "Active"}, {"measurement": "inhibition", "setting": "[16]", "result": "Active"}, {"measurement": "inhibition", "setting": "[17]", "result": "Active"}, {"measurement": "inhibition", "setting": "[18]", "result": "Active"}, {"measurement": "inhibition", "setting": "[19]", "result": "Active"}, {"measurement": "inhibition", "setting": "[20]", "result": "Active"}, {"measurement": "inhibition", "setting": "[21]", "result": "Active"}, {"measurement": "inhibition", "setting": "[22]", "result": "Active"}]}, {"smiles": "N[C@@H]1CONC1=O", "values": [{"measurement": "inhibition", "setting": "[23]", "result": "Active"}, {"measurement": "inhibition", "setting": "[24]", "result": "Active"}, {"measurement": "inhibition", "setting": "[25]", "result": "Active"}, {"measurement": "inhibition", "setting": "[26]", "result": "Active"}, {"measurement": "inhibition", "setting": "[27]", "result": "Active"}, {"measurement": "inhibition", "setting": "[28]", "result": "Active"}, {"measurement": "inhibition", "setting": "[29]", "result": "Active"}, {"measurement": "inhibition", "setting": "[30]", "result": "Active"}, {"measurement": "inhibition", "setting": "[31]", "result": "Active"}, {"measurement": "inhibition", "setting": "[32]", "result": "Active"}, {"measurement": "inhibition", "setting": "[33]", "result": "Active"}, {"measurement": "inhibition", "setting": "[34]", "result": "Active"}, {"measurement": "inhibition", "setting": "[35]", "result": "Active"}]}]}
